Measured values as given in ChEMBL document CHEMBL5518235, “Identification of Novel Series of Potent and Selective Relaxin Family Peptide Receptor 1 (RXFP1) Agonists” (J Med Chem, 2024).

How the values were obtained:
[1] = target: T1, Relaxin receptor 1 (Homo sapiens, UniProt Q9HBX9); test: Agonist activity at human RXFP1 expressed in T-Rex-CHO-K1 cells assessed as stimulation of cAMP production incubated for 45 mins by HTRF assay; type: functional, cell-based
T1 sequence (Q9HBX9 whole entry): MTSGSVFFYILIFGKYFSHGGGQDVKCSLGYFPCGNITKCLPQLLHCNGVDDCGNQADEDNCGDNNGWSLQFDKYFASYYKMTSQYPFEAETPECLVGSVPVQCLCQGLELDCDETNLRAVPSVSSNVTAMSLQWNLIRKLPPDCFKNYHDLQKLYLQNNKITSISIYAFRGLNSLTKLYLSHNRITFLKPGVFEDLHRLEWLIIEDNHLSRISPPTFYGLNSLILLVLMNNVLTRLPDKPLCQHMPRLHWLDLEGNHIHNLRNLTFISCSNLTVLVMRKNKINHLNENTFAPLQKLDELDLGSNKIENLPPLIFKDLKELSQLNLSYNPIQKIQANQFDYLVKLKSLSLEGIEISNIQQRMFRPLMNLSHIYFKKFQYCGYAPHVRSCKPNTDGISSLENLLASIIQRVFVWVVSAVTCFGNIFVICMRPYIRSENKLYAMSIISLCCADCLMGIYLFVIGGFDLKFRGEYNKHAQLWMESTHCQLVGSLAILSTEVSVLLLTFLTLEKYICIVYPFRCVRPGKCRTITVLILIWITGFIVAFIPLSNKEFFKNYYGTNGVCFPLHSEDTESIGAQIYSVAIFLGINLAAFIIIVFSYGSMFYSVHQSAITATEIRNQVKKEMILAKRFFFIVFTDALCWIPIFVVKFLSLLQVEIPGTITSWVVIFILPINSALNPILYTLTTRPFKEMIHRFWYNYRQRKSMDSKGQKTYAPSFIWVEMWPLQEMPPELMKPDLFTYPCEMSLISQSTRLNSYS

[2] = target: T2, Relaxin receptor 1 (Homo sapiens) (UniProt Q9HBX9); test: Agonist activity at human RXFP1 expressed in T-Rex-CHO-K1 cells assessed as stimulation of cAMP production by measuring maximal efficacy at 50 uM incubated for 45 mins by HTRF assay relative to control; type: functional, cell-based
T2 sequence (whole entry): T1 sequence (Q9HBX9 whole entry)

[3] = Lipophilicity, logD of the compound in 1-octanol and phosphate buffer at pH 7.4 incubated for 3 hrs by shake flask method based LC/MS/MS analysis; type: physicochemical; settings: 1-octanol/phosphate buffer, pH 7.4
[4] = Metabolic stability in cryopreserved human hepatocytes assessed as intrinsic clearance measured per 10^6 cells at 1 uM after 120 mins by LC-MS/MS analysis; type: ADME, cell-based, Hepatocyte; settings: cryopreserved hepatocytes, read-out: CLH
[5] = Metabolic stability in cryopreserved human hepatocytes assessed as unbound intrinsic clearance measured per 10^6 cells at 1 uM measured after 120 mins by LC-MS/MS analysis; type: ADME, cell-based, Hepatocyte; settings: 2 h
[6] = Metabolic stability in human liver microsomes assessed as intrinsic clearance at 1 uM incubated for 30 mins in presence of NADPH by LC-MS/MS analysis; type: ADME, Microsome; settings: liver microsomes, read-out: CLH
[7] = Metabolic stability in human liver microsomes assessed as unbound intrinsic clearance at 1 uM incubated for 30 mins in presence of NADPH by LC-MS/MS analysis; type: ADME, Microsome; settings: 0.5 h

| Compound | EC50 [1] [nM] | Emax ([2]; filed as agonist) [%] | logD at 3 h [3] | hepatocyte CLint at 1 µM [4] [µL/min/1e6 cells] | CL free [5] [µL/min] | microsomal CLint at 1 µM [6] [µL/min/mg] | CL free [7] | Emax [2] [%] |
| --- | --- | --- | --- | --- | --- | --- | --- | --- |
| COc1cc(F)c(O[C@H]2CC[C@@H](C(=O)O)CC2)cc1C(=O)N[C@@H]1[C@H](C(=O)Nc2ccc(F)c(C(F)(F)F)c2)[C@H]2C=C[C@@H]1C2 | 2570 | 107 | 3.6 | 4.8 | 42 |  |  |  |
| COc1cc(F)ccc1C(=O)N[C@@H]1[C@H](C(=O)Nc2cccc(S(=O)(=O)C(F)(F)F)c2)[C@H]2C=C[C@@H]1C2 (racemic) | 1580 | 113 | > 3 |  |  | > 300 | > 14 10^3uL/min/mg |  |
| COc1cc(F)c(OCCCC(=O)O)cc1C(=O)N[C@H]1[C@@H](C(=O)Nc2cccc(S(=O)(=O)C(F)(F)F)c2)[C@@H]2C=C[C@H]1C2 (racemic) | 1580 | 114 | 2.5 | 13 | 51 |  |  |  |
| COc1cnc(-c2ccc(C(=O)O)cc2)cc1C(=O)N[C@H]1[C@@H](C(=O)Nc2cccc(S(=O)(=O)C(F)(F)F)c2)[C@@H]2C=C[C@H]1C2 (racemic) | 3980 | 117 | 2.3 |  |  | 7 | 19 µL/min/mg |  |
| COc1cc(F)c(C(=O)N2CCC(C)(C(=O)O)CC2)cc1C(=O)N[C@H]1[C@@H](C(=O)Nc2cccc(S(=O)(=O)C(F)(F)F)c2)[C@@H]2C=C[C@H]1C2 (racemic) | 3160 | 111 | 1.9 | 3 | 6.3 |  |  |  |
| COc1cc(F)c(-c2ccc(C(=O)O)cc2)cc1C(=O)N[C@H]1[C@@H](C(=O)Nc2cccc(S(=O)(=O)C(F)(F)F)c2)[C@@H]2C=C[C@H]1C2 |  | 99 |  |  |  |  |  |  |
| COc1cc(F)c(O[C@H]2CC[C@@](C)(C(=O)O)CC2)cc1C(=O)N[C@@H]1C[C@@H](OC)C[C@@H]1C(=O)Nc1cccc(S(=O)(=O)C(F)(F)F)c1 | 25.1 | 110 | 3 | 6.2 | 26 |  |  |  |
| COc1ccccc1C(=O)N[C@H]1[C@@H](C(=O)Nc2cccc(S(=O)(=O)C(F)(F)F)c2)[C@H]2C=C[C@@H]1C2 (racemic) | > 50100 |  | 3.5 |  |  | 140 | 0.35 10^3uL/min/mg | 37 |
| COc1cc(F)c(O[C@H]2CC[C@@](C)(C(=O)O)CC2)cc1C(=O)N[C@@H]1CCC[C@@H]1C(=O)Nc1ccc(F)c(S(F)(F)(F)(F)F)c1 | 3.16 | 105 | 4.35 | 13 | 283 |  |  |  |
| COc1cc(F)c(O[C@H]2CC[C@@](C)(C(=O)O)CC2)cc1C(=O)N[C@@H]1COC[C@@H]1C(=O)Nc1cccc(S(=O)(=O)C(F)(F)F)c1 | 126 | 104 | 2.6 | 6.3 | 23 |  |  |  |
| COc1cc(F)c(-c2ccc(C[C@H](C(=O)O)N(C)C)cc2)cc1C(=O)N[C@@H]1[C@H]2CC[C@H](C2)[C@@H]1C(=O)Nc1cccc(S(=O)(=O)C(F)(F)F)c1 | 200 | 105 | 3.7 |  |  | 28 | 1.1 10^3uL/min/mg |  |
| COc1cc(F)c(OCCCCC(=O)O)cc1C(=O)N[C@H]1[C@@H](C(=O)Nc2cccc(S(=O)(=O)C(F)(F)F)c2)[C@@H]2C=C[C@H]1C2 (racemic) | 251 | 119 | 2.9 | 16 | 89 |  |  |  |
| COc1cc(F)c(O[C@H]2CC[C@@H](C(=O)O)CC2)cc1C(=O)N[C@@H]1[C@H]2CC[C@H](C2)[C@@H]1C(=O)Nc1ccncc1 | > 50100 | 42 | 1.6 |  |  |  |  |  |
| COc1cc(F)c(O[C@H]2CC[C@H](C(=O)O)CC2)cc1C(=O)N[C@H]1[C@@H](C(=O)Nc2cccc(S(=O)(=O)C(F)(F)F)c2)[C@@H]2C=C[C@H]1C2 | 2000 | 81 | 3 | 8.4 | 84 |  |  |  |
| COc1cc(F)c(O[C@H]2CC[C@@H](C(=O)O)CC2)cc1C(=O)N[C@H]1[C@H](C(=O)Nc2ccc(F)c(C(F)(F)F)c2)[C@@H]2C=C[C@H]1C2 | 3980 | 91 | 3.5 | 10 | 91 |  |  |  |
| COc1cc(F)c(-c2ncc(C(=O)O)s2)cc1C(=O)N[C@H]1[C@@H](C(=O)Nc2cccc(S(=O)(=O)C(F)(F)F)c2)[C@@H]2C=C[C@H]1C2 (racemic) | 631 | 111 | 1.7 |  |  | 13 | 65 µL/min/mg |  |
| COc1cc(F)c(O[C@H]2CC[C@@H](C(=O)O)CC2)cc1C(=O)N[C@@H]1[C@H]2CC[C@H](C2)[C@@H]1C(=O)Nc1cccc(C(F)F)c1 |  | 104 | 2.8 | 11 | 51 |  |  |  |
| COc1cc(F)c(Oc2ccc(C(=O)O)cc2)cc1C(=O)N[C@H]1[C@@H](C(=O)Nc2cccc(S(=O)(=O)C(F)(F)F)c2)[C@@H]2C=C[C@H]1C2 (racemic) | 316 | 103 | 3.6 | 7.2 | 480 |  |  |  |
| COc1cc(F)c(O[C@H]2CC[C@@](C)(C(=O)O)CC2)cc1C(=O)N[C@@H]1[C@H]2CC[C@H](C2)[C@@H]1C(=O)Nc1cccc(S(=O)(=O)C(F)(F)F)c1 | 2 | 109 | 4.15 | 15 | 306 |  |  |  |
| COc1cc(F)c(O[C@H]2CC[C@@H](C(=O)O)CC2)cc1C(=O)N[C@H]1[C@@H](C(=O)Nc2ccc(F)c(S(=O)(=O)C(F)(F)F)c2)[C@@H]2C=C[C@H]1C2 | 15.8 | 114 |  | 7.5 | 32 |  |  |  |
| COc1cc(F)c(O[C@H]2CC[C@@H](C(=O)O)CC2)cc1C(=O)N[C@@H]1[C@H]2CC[C@H](C2)[C@@H]1C(=O)Nc1ccccc1 | 7940 | 98 | 2.5 | 7.6 | 25 |  |  |  |
| COc1cc(F)c(O[C@H]2CC[C@](C)(C(=O)O)CC2)cc1C(=O)N[C@@H]1[C@H]2CC[C@H](C2)[C@@H]1C(=O)Nc1cccc(S(=O)(=O)C(F)(F)F)c1 | 100 | 103 | 4.2 | 10 | 222 |  |  |  |
| COc1cc(F)c(O[C@H]2CC[C@@H](C(=O)O)CC2)cc1C(=O)N[C@H]1[C@@H](C(=O)Nc2cccc(S(=O)(=O)C(F)(F)F)c2)[C@@H]2C=C[C@H]1C2 | 63.1 | 109 | 3.25 | 11 | 100 |  |  |  |
